Converted amounts (≈) assume the structure as drawn.
What was measured:
Solubility = format: physicochemical
[1] = test system: Candida albicans TIMM1623; assay: MIC assay of anti-fungal activity in vitro, Candida albicans TIMM1623; format: cell-based; settings: 24 h, C. albicans TIMM1623, Yeast Morphology Ager, serial double dilution, 30° C., 1 day
Description: (§1) In the following, examples of anti-fungal assays are described.
(§2) In the assay standard microbial strains supplied from Research Center for Eumyceta and Mycosis, Teikyo University, Japan, were used as the test fungi, and Yeast Morphology Ager (DIFCO) was used as the medium for the drug sensitivity assays.
(§3) Firstly, the given fungus was smeared on the potato-dextrose agar media (Nissui Seiyaku) slants, incubated at 30° C. for 1 day (for Candida albicans and Cryptococcus neoformans) or for 4 days (for Aspergillus nigar and Aspergillus fumigatus), and then the fungus grown on the slant was washed out with a sterilized physiological salt solution containing 0.1% Tween 80. The washed out fungus was passed through a filter with 15 μm bores, and, after the number of fungus colonies were counted on the blood cell counting plate, a suspension containing 10^5 CFU/ml of fungus was prepared to be used as the inoculation solution. After this solution (0.02 ml) was inoculated to Yeast Morphology Ager containing a drug at concentrations in a serial double dilution, it was cultured at 30° C. for either 1 day or 4 days.
(§4) MIC assay of cryptoporic acid H was carried out by the similar procedure as described above.

C. neoformans TIMM0354 = assay: MIC assay of anti-fungal activity in vitro, Cryptococcus neoformans TIMM0354; format: cell-based; settings: 24 h, Yeast Morphology Ager, serial double dilution, 30° C., 1 day
Description: as §1, §2, §3

[2] = test system: Aspergillus niger TIMM0113; assay: MIC assay of anti-fungal activity in vitro, Aspergillus niger TIMM0113; format: cell-based; settings: 96 h, A. niger TIMM0113, Yeast Morphology Ager, serial double dilution, 30° C., 4 days
Description: as §1, §2, §3, §4

[3] = test system: Aspergillus fumigatus TIMM0063; assay: MIC assay of anti-fungal activity in vitro, Aspergillus fumigatus TIMM0063; format: cell-based; settings: 96 h, A. fumigatus TIMM0063, Yeast Morphology Ager, serial double dilution, 30° C., 4 days
Description: as §1, §2, §3, §4

[4] = test system: Candida albicans, Cryptococcus neoformans, Aspergillus nigar and Aspergillus fumigatus; assay: anti-microbial activity in vitro against test fungi (overall statement); format: cell-based; settings: stated in words
Description: as §1, §2, §3

[5] = test system: Saccharomyces cerevisiae JCM2216; assay: MIC assay, Saccharomyces cerevisiae JCM2216; format: cell-based; settings: similar procedure as described above
[6] = in methanol, acetone, and ethyl acetate

SMILES | Solubility (Solubility; in chloroform) | Solubility (Solubility; [6]) | Solubility (Solubility; in water) | MIC [1] [µg/mL] | MIC (C. neoformans TIMM0354) [µg/mL] | MIC [2] [µg/mL] | MIC [3] [µg/mL] | anti-fungal activities [4] | MIC [5] [µg/mL]
C=C1CC[C@H]2C(C)(C)CCC[C@]2(C)[C@H]1COC(C(=O)O[C@H]1CC(C)(C)[C@@H]2CC=C3COC(O)[C@@H]3[C@@]2(C)C1)C(CC(=O)O)C(=O)OC (some centres unmarked) [TG104] | soluble | readily soluble | slightly soluble | – | – | – | – | – | –
C=C1CC[C@H]2C(C)(C)CCC[C@]2(C)[C@H]1COC(C(=O)OC)C(CC(=O)O)C(=O)O[C@H]1CC(C)(C)[C@@H]2CC=C(C=O)[C@H](C=O)[C@@]2(C)C1 (some centres unmarked) [TG101] | soluble | readily soluble | slightly soluble | 100 (≈ 156 µM) | 50 (≈ 77.8 µM) | 50 (≈ 77.8 µM) | 50 (≈ 77.8 µM) | confirming their anti-fungal activities | –
C=C1CC[C@H]2C(C)(C)CCC[C@]2(C)[C@H]1COC(C(=O)O[C@H]1CC(C)(C)[C@@H]2CC=C(C=O)[C@H](C=O)[C@@]2(C)C1)C(CC(=O)O)C(=O)OC (some centres unmarked) [TG102] | soluble | readily soluble | slightly soluble | – | – | – | – | – | –
C=C1CC[C@H]2C(C)(C)CCC[C@]2(C)[C@H]1COC(C(=O)O)C(CC(=O)O)C(=O)O (some centres unmarked) [Cryptoporic acid H, cryptoporic acid H] | – | – | – | 200 (≈ 504 µM) | – | 200 (≈ 504 µM) | 200 (≈ 504 µM) | – | 200 (≈ 504 µM)
C=C1CC[C@H]2C(C)(C)CCC[C@]2(C)[C@H]1COC(C(=O)OC)C(CC(=O)O)C(=O)O[C@H]1CC(C)(C)[C@@H]2CC=C3COC(O)[C@@H]3[C@@]2(C)C1 (some centres unmarked) [TG103] | soluble | readily soluble | slightly soluble | 100 (≈ 155 µM) | 50 (≈ 77.5 µM) | 100 (≈ 155 µM) | 25 (≈ 38.8 µM) | confirming their anti-fungal activities | –
